Laboratory results as given in patent US12337024B2, “Larazotide formulations” (Interlude Biopharma Co., priority 2019, dated 2025).
Like-named read-outs stand apart in the source and are kept apart here. Ends that are not written are not given here.

Legend:
[1] = tested on: mice on the Western diet
Description: 77 DIAMOND™ mice were placed on either normal chow (NDNW) or Western Diet (WDSW) and aged up to 8, 20, 28, 36, and 40 weeks, then dosed with 4 kDa FITC-dextran at 600 mg/kg body weight by gavage. Four hours after the dosing, at least 20 μL of serum was taken by tail vein nick. A competition ELISA, which measures small dextran polymers (conjugated or unconjugated), was used to quantify serum dextran concentration.
The subsequent experiment evaluated the effects of orally administered larazotide acetate to mice on the Western diet. The study design is depicted in FIG. 2. Specifically, 8 groups of mice were placed on WDSW diets for 16 weeks and administered larazotide (dosed in drinking water or oral gavage), pioglitazone comparator, or vehicle from 8-16 weeks. Improvement in leaky gut was assessed by dosing the mice with unconjugated dextran at 600 mg/kg via oral gavage at baseline and end of study, serum was collected 4 hours later, and serum dextran concentrations were measured.

[2] = tested on: tight junction; test: Activity as tight junction regulators
[3] = tested on: celiac disease symptoms; settings: clinical trials, cited from earlier work

GGVLVQPG [larazotide]
gut integrity ([1]; mice on Western diet, larazotide from 8-16 weeks, drinking water or oral gavage, FIG. 3): improved gut integrity
activity as tight junction regulator when mixed with fragments ([2]; full length larazotide mixed with fragments GVLVQPG and VLVQPG): activity is completely abolished
reduction of celiac disease symptoms ([3]; higher doses (e.g., 1 mg and 2 mg doses)): attenuation of activity, or no activity at all
reduction of celiac disease symptoms ([3]; lower doses (e.g., 0.5 mg dose)): benefit at reducing celiac disease symptoms

GVLVQPG (Synthetic polymer) [larazotide-derived fragment missing N-terminal glycine residue]
activity as tight junction regulators [2]: inactive

VLVQPG (Synthetic polymer) [larazotide-derived fragment missing N-terminal glycine residues]
activity as tight junction regulators [2]: inactive

larazotide acetate
serum dextran concentrations ([1]; mice on Western diets, various doses, serum 4 hours after dextran 600 mg/kg gavage): successful in lowering the serum dextran concentrations
